In test [1] the test system is LCLC-103H cells. Put plainly: Calreticulin surface expression in vitro (flow cytometry). In kind it is cell-based, human. As to conditions: 48 h; for cell surface expression of calreticulin (MFI) compared to untreated cells: ADCs 2 μg/mL, MMAE 10 or 50 nM, paclitaxel 1 μM; for percentage of calreticulin positive cells: compared to untreated or isotype control ADC. As for the experimental part:
(§1) LCLC-103H or MDA-MB-231 cells were grown to 70% to 80% confluence in 6-well plates, washed with serum-free medium and incubated with IgG1-AXL-107-vcMMAE (2 μg/mL), free monomethyl auristatin E (MMAE, SAFC, cat.no SG10; 10 or 50 nM), paclitaxel (1 μM), or isotype control ADC (IgG1-b12-vcMMAE; 2 μg/mL) in serum-free medium (RPMI1640, Lonza BE17-603E) for 48 hours (LCLC-103H) or 72 hours (MDA-MB-231). After incubation, supernatant and cells were collected and washed in PBS/0.1% BSA/0.02% azide (FACS buffer). Cells were then incubated with a phycoerythrin (PE)-conjugated mouse anti-human calreticulin antibody (Enzo, Cat no. ADI-SPA-601PE-D, lot. 10021835) for 30 min at 4° C. in the dark. A PE-conjugated mouse isotype control antibody (Enzo, cat no. ADI-SAB-600PE-D, lot. 08071817) was included as a control. After washing with FACS buffer, cells were analyzed with flow cytometry in the presence of DAPI (BD; cat no. 564907, lot. 8012653) or TO-PRO-3 (Thermo Fisher, cat no. T3605, lot. 1976612). Calreticulin expression was determined as PE positive cells and the percentage of calreticulin positive cells over isotype control was obtained on DAPI or TO-PRO-3 negative cells.
In general terms: In flow cytometry, cells or beads pass a laser one at a time.

Test [2] relates to MDA-MB-231 cells. The test is described as above. In kind it is cell-based, human. As to conditions: 72 h; for cell surface expression of calreticulin (MFI) compared to untreated cells: ADCs 2 μg/mL, MMAE 10 or 50 nM, paclitaxel 1 μM; for percentage of calreticulin positive cells: compared to untreated or isotype control ADC. As for the experimental part:
as §1

Test [3] relates to LCLC-103H cells. Description: Extracellular ATP release in vitro (CellTiterGlo). As to conditions: 48 hr, 100% PBS; ADC 2 μg/mL, paclitaxel 1 μM, MMAE 10 or 50 nM. In kind it is cell-based, human. As for the experimental part: (§2) LCLC-103H or MDA-MB-231 cells were seeded in quadruplicate at 25,000 cells per well for LCLC-103H cells or 125,000 cells per well for MDA-MB-231 cells in 24-well plates and grown 3 hours at 37° C. Subsequently, IgG1-AXL-107-vcMMAE (2 μg/mL), free monomethyl auristatin E (MMAE; 10 or 50 nM), paclitaxel (1 μM), or isotype control ADC (IgG1-b12-vcMMAE; 2 μg/mL) were added per well.
(§3) Plates were incubated for 48 hr at 37° C. and after incubation each well was washed with 200 μL PBS. After the final wash, PBS was replaced with 200 μL fresh 100% PBS or 70% PBS (hypotonic) for the indicated times, harvested and transferred to a 96-well plate, and then spun at 1000 rpm for 2 min at RT. Supernatants were transferred to a new 96-well (optiwhite) plate and ATP was measured using CellTiterGlo Luminescent Cell Viability Assay (Promega, Cat.no G7570) according to manufacturer's instructions. All steps were performed with ice-cold PBS and in the dark.
(In general: In ATP-based viability assays light output follows the ATP content of the culture.)

In test [4] the test system is MDA-MB-231 cells. Put plainly: Extracellular ATP release in vitro (CellTiterGlo). In kind it is cell-based, human. As to conditions: 48 hr. How it is done:
as §2, §3

For test [5], the system named is LCLC-103H cells. Put plainly: HMGB1 secretion in vitro (ELISA). In kind it is cell-based, human. As to conditions: 48 hrs; ADC 2 μg/mL, MMAE 10 or 50 nM, paclitaxel 1 μM. As for the experimental part: (§4) MDA-MB-231 or LCLC-103H cells were seeded in quadruplicate at 125,000 cells per well (MDA-MB-231) or 25,000 cells/well (LCLC-103H) in 24-well plates and grown 3-4 hrs at 37° C. Subsequently, IgG1-AXL-107-vcMMAE (2 μg/mL), free monomethyl auristatin E (MMAE; 10 or 50 nM), paclitaxel (1 μM), or isotype control ADC (IgG1-b12-vcMMAE; 2 μg/mL) were added to the wells and plates were incubated for 48 hrs at 37° C. After incubation cells were pelleted at 1000 rpm for 3 min at RT and supernatants were transferred to a new 96-wells plate. HMGB1 was measured in the supernatant using a HMGB1-specific ELISA kit (IBL, Cat.no ST51011) according to manufacturer's instructions.
In general terms: In an ELISA, binding on a coated surface is turned into a signal by an enzyme label.

Test [6] relates to MDA-MB-231 cells. Description: HMGB1 secretion in vitro (ELISA). In kind it is cell-based, human. As to conditions: 48 hrs; ADC 2 μg/mL, MMAE 10 or 50 nM, paclitaxel 1 μM. As for the experimental part: as §4
In test [7] the test system is BLM human melanoma cell line-derived xenograft. Put plainly: BLM melanoma xenograft model with MART-1-specific human T cells. In kind it is in vivo, mice. As to conditions: ADC single dose 4 mg/kg i.v. with control or MART-1 T cells; anti-PD1 5 mg/kg weekly i.p. with MART-1 T cells and control ADC. As for the experimental part:
The anti-tumor activity of IgG1-AXL-107-vcMMAE in combination with anti-PD1 (pembrolizumab) was evaluated in the BLM human melanoma cell line-derived xenograft model in mice, which systemically received human T-cells that were engineered to express a melanoma-specific T-cell receptor (TCR) against MART-1. Before inoculation of mice with BLM cells, the BLM cells were transduced with the antigen (MART-1) as well as the correct HLA haplotype (HLA-A2) in order for the MART-1-specific T cells to recognize the tumor cells.
Melanoma cell line BLM was cultured in DMEM (Gibco), with fetal bovine serum (Sigma), 100 U/mL penicillin (Gibco) and 0.1 mg/mL streptomycin (Gibco) under standard conditions, and was regularly confirmed to be mycoplasma-free by PCR. […]
(§5) 8-14 week old male and female NOD-SCID Gamma (NSGTM) mice (bred in-house at the Netherlands Cancer Institute (NKI), Amsterdam, The Netherlands) were subcutaneously injected in the right flank with 1×10^6 BLM tumor cells. Tumors were measured three times per week with a caliper, and when tumors were 100 mm3 (after 7 days) the animals were randomized over the following treatment groups: • 1. […]
(§6) Tumor volumes were measured 3 times per week by an independent animal technician in a blinded fashion. Tumor volume was calculated as follows: […]. […]

Test [8] has as its system LCLC-103H NSCLC cell line-derived xenograft. Description: LCLC-103H NSCLC xenograft model with MART-1-specific human T cells. In kind it is in vivo, mice. As to conditions: ADC 1 mg/kg weekly i.v. with control T cells; anti-PD1 5 mg/kg weekly i.p. with MART-1 T cells and control ADC. How it is done:
The anti-tumor activity of IgG1-AXL-107-vcMMAE in combination with anti-PD1 (pembrolizumab) was evaluated in the LCLC-103H NSCLC cell line-derived xenograft model in mice, which systemically received human T-cells that were engineered to express a specific T-cell receptor (TCR) against MART-1. Before inoculation of mice with LCLC-103H cells, the LCLC-103H cells were transduced with the antigen (MART-1) as well as the correct HLA haplotype (HLA-A2) in order for the MART-1-specific T cells to recognize the tumor cells.
as §5, with “50” for “100”, “16 days), mice” for “7 days) the animals”, “1. Control T cells+Control ADC (n=7) • 2. MART-1 T cells+Control ADC (n=7) • 3. MART-1 T cells+Control ADC+anti-PD1 (n=7) • 4. Control T cells+IgG1-AXL-107-vcMMAE (n=11) • 5. MART-1 T cells+IgG1-AXL-107-vcMMAE (n=11) • 6. MART-1 T cells+IgG1-AXL-107-vcMMAE+anti-PD1 (n=11)” for “1.”
as §6

[9] abbreviates: hypotonic conditions (70% PBS), ADCs 2 μg/mL, MMAE 50 nM, paclitaxel 1 μM.

Non-standard residues stand in square brackets, D forms with d. Residues, ends and D or L forms follow the SMILES beside them. *: point of attachment. Dolaproine = CO[C@@H]([C@@H]1CCCN1)[C@@H](C)C(=O)O; Dil = CC[C@H](C)[C@H](NC)[C@@H](CC(=O)O)OC; X1 = C[C@@H](N*)[C@@H](O)c1ccccc1; NMeV = CN[C@H](C(=O)O)C(C)C

`CC[C@H](C)[C@@H]([C@@H](CC(=O)N1CCC[C@H]1[C@H](OC)[C@@H](C)C(=O)N[C@H](C)[C@@H](O)c1ccccc1)OC)N(C)C(=O)[C@@H](NC(=O)[C@@H](NC)C(C)C)C(C)C` [MMAE, monomethyl auristatin E] (H-[NMeV]V[Dil][Dolaproine]-X1): the “cell surface expression of calreticulin (MFI) compared to untreated cells” value with LCLC-103H cells [1] and in the test with MDA-MB-231 cells [2] was “comparable” each time. Moreover, the “percentage of calreticulin positive cells” value with LCLC-103H cells [1] and in the test with MDA-MB-231 cells [2] was “increased” in each case. Further, the “ATP release compared to untreated cells” value with LCLC-103H cells [3] is given as “comparable levels”; with MDA-MB-231 cells [4] (100% PBS, 10 nM MMAE), “about 10 fold”; in the test on MDA-MB-231 cells [4] (hypotonic conditions (70% PBS), 10 nM MMAE), approximately 26 fold; in the test on MDA-MB-231 cells [4] (setting [9]), “about 10 fold”. In addition, the “HMGB1 secretion compared to untreated cells” value is recorded as “similar” in the test with LCLC-103H cells [5] and “around 4 fold” in the test with MDA-MB-231 cells [6].
Consider `CC(=O)O[C@H]1C(=O)[C@@]2(C)[C@H]([C@H](OC(=O)c3ccccc3)[C@]3(O)C[C@H](OC(=O)[C@H](O)[C@@H](NC(=O)c4ccccc4)c4ccccc4)C(C)=C1C3(C)C)[C@]1(OC(C)=O)CO[C@@H]1C[C@@H]2O` [paclitaxel], for which the “cell surface expression of calreticulin (MFI) compared to untreated cells” value with LCLC-103H cells [1] and in the test on MDA-MB-231 cells [2] was “comparable” in each case. Moreover, the “percentage of calreticulin positive cells” value in the test with LCLC-103H cells [1] and in the test on MDA-MB-231 cells [2] was “increased” in each case. Besides, the “ATP release compared to untreated cells” value with LCLC-103H cells [3] is listed as “comparable levels”; in the test on MDA-MB-231 cells [4] (setting [9]), approximately 15 fold. Moreover, the results for the “HMGB1 secretion compared to untreated cells” value with LCLC-103H cells [5] and with MDA-MB-231 cells [6] were “about 11 fold” and “around 4 fold”, respectively.
Take “anti-PD1: anti-PD1 antibody pembrolizumab (KEYTRUDA, MSD), obtained from SelleckChem”: the “anti-tumor effect (tumor size)” value in test [7] and in test [8] was “no enhanced tumor growth inhibition” throughout.

These data come from US20220273809A1, “AXL ANTIBODY-DRUG CONJUGATES FOR USE IN TREATING CANCER” (GENMAB A/S, priority 2019, published 2022).
